The source of these data is patent US12456543B2, “Enzymes” (UNIVERSITY COURT OF THE UNIVERSITY OF ST ANDREWS, priority 2018, dated 2025).

Experiment [1] is described as follows: Halogenase activity of Dsg205 and Dsg701 against 600 member compound library, LC-MSMS assay. It counts as biochemical. The following applies: substrate of Dsg205/Dsg701, enzyme not specified.
The next experiment deals with Dsg407. Briefly: Substrates accepted by Dsg407. The following applies: purified Dsg407, NaBr or NaI, pH 7.2.
Experiment [2] has as its system tryptophan 7-halogenase RebH. As to conditions: natural substrate tryptophan; based on product production; cited from earlier work.
Experiment [3] has as its system tryptophan 5-halogenase PyrH. The following applies: natural substrate tryptophan; based on product production; cited from earlier work.

Take `Nc1cccc2cccnc12` [8-quinolamine]: the “conversion of substrate, estimated” value in experiment [1] is approximately 75%.

In the case of `N[C@H](Cc1c[nH]c2ccccc12)C(=O)O` [D-tryptophan], in the experiment with Dsg407, the “accepted as substrate by Dsg407” value was “accepts”.

Consider `c1cc2cc[nH]c2cn1` [Dsg 6-azaindole, 6-azaindole], for which the “accepted as substrate by Dsg407” value in the experiment with Dsg407 is listed as “also a substrate of Dsg407”.

Take `N[C@@H](Cc1c[nH]c2ccccc12)C(=O)O` [L-tryptophan]: the “accepted as substrate by Dsg407” value in the experiment with Dsg407 is reported as “not”.

As to `N[C@@H](Cc1c[nH]c2ccccc12)C(=O)O` [tryptophan], the Km (usually the substrate concentration at which the rate is half of its maximum) in experiment [2] was 18.7 ± 1.3 µM. For the same molecule, in experiment [3], the Kcat was 0.0417 ± 0.0067 s⁻¹.
